Results on 21 molecules are retold here after PubChem BioAssay (NCI).

Test systems include SNB-78 CNS; DMS 114 small cell lung; LXFL 529 NSCLC; KM20L2 colon; XF 498 CNS; MDA-N; HS 578T breast; BT-549 breast.
Holding throughout (assay): DTP human tumour cell line panel, 48 h

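The compound was tested at five concentrations on cells cultured in 96-well plates, with a 48-hour exposure period. GI50 is the concentration that inhibits growth by half. TGI: concentration producing complete growth inhibition.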

As for `COC(=O)C1=C(O)C(O)=C(C(=O)OC)C1`, the total growth inhibition concentration (TGI) in the test with SNB-78 CNS, with DMS 114 small cell lung, in the test with LXFL 529 NSCLC and in the test on KM20L2 colon was more than 100 µM throughout.
As for `COc1ccc2ccc([Se]c3ccc4ccc(OC)cc4c3)cc2c1`, the TGI with SNB-78 CNS, with XF 498 CNS, in the test with DMS 114 small cell lung, in the test on LXFL 529 NSCLC and in the test with KM20L2 colon was more than 100 µM throughout.
For the molecule `COc1ccc(/C=C2/C[N+](C)(C)C/C(=C/c3ccc(OC)cc3)C2=O)cc1`, the TGI was more than 100 µM in the test with SNB-78 CNS; more than 100 µM in the test on XF 498 CNS; more than 69.3 µM in the test with DMS 114 small cell lung; more than 100 µM with LXFL 529 NSCLC; more than 100 µM in the test with KM20L2 colon.
As for `Cc1cc(C)nc(Nc2nc3ccc([N+](=O)[O-])cc3[nH]2)n1`, the TGI in the test with SNB-78 CNS, in the test with XF 498 CNS, in the test on DMS 114 small cell lung, in the test on LXFL 529 NSCLC and in the test on KM20L2 colon was more than 100 µM each time.
Take `CCOC(=O)c1ccc(N2C(=O)/C(=C\OC)c3ccccc3C2=O)cc1`: the TGI in the test with SNB-78 CNS is more than 100 µM; with DMS 114 small cell lung, more than 100 µM; in the test on LXFL 529 NSCLC it was 89.1 µM; in the test on KM20L2 colon it was more than 100 µM.
Turning to `C=C1CC[C@@H]2C(C)(C)CCC[C@@]2(C)[C@@H]1Cc1cc(O)ccc1O`, the concentration for total growth inhibition (TGI) with SNB-78 CNS was found to be 5.25 µM; in the test on DMS 114 small cell lung it was 4.1 µM; in the test with LXFL 529 NSCLC it was 6.68 µM; in the test with KM20L2 colon it was 32.8 µM.
Turning to `C[C@H]1CCC/C=C/[C@@H]2C[C@H](O)C[C@H]2[C@H](O)[C@@H](S(=O)CCN(C)C)CC(=O)O1` (stereo partly drawn), the GI50 is 0.228 µM with MDA-N, 0.0646 µM with HS 578T breast and 0.202 µM in the test with BT-549 breast. The total growth inhibition concentration (TGI) in the test with MDA-N is more than 100 µM; in the test on HS 578T breast, more than 40.8 µM.
For the molecule `CC(=O)Nc1ccc(C2[C@H]3C(=O)N(c4ccc(Cc5ccc(N6C(=O)[C@@H]7ON(c8ccccc8)C(c8ccc(NC(C)=O)cc8)[C@@H]7C6=O)cc5)cc4)C(=O)[C@H]3ON2c2ccccc2)cc1` (stereo partly drawn), the TGI in the test with SNB-78 CNS, in the test on DMS 114 small cell lung, in the test with LXFL 529 NSCLC and with KM20L2 colon was more than 100 µM in each case.
In the case of `CC(C)(O)C1OCC(C2CCC3(C)C4=CCC5C(C)(C)C(O)CCC5(C)C4CCC23C)CC1O` (stereo not drawn), the values for the TGI with MDA-N, in the test on HS 578T breast and in the test on BT-549 breast were 41.8 µM, 29.3 µM and 24.8 µM, respectively.
Turning to `COC(=O)c1ccc(N=NN(C)CO)cc1`, the TGI with SNB-78 CNS is more than 100 µM; in the test with XF 498 CNS, 9.97 µM; in the test with DMS 114 small cell lung, more than 100 µM; in the test with LXFL 529 NSCLC, more than 100 µM; with KM20L2 colon, more than 100 µM.
In the case of `O=C([CH-]C(=O)c1ccccc1)c1ccccc1.O=C([CH-]C(=O)c1ccccc1)c1ccccc1.[Nd+3].[OH-].[OH3+]`, in the test with KM20L2 colon, the GI50 is 8.45 µM and the TGI came out at 28.8 µM.
Regarding `Cn1c(=O)c2[nH]c(CS(=O)(=O)Cc3nc4c([nH]3)c(=O)n(C)c(=O)n4C)nc2n(C)c1=O`, the TGI in the test with MDA-N, with HS 578T breast and with BT-549 breast was more than 100 µM each time.
In the case of `COc1c(O)ccc2c1CN1CCc3cc4c(cc3C1C2)OCO4` (stereo not drawn), the results for the concentration for total growth inhibition (TGI) with MDA-N, in the test on HS 578T breast and in the test on BT-549 breast were more than 80.8 µM, more than 100 µM and more than 100 µM, respectively.
Take `Cc1c2cc[nH]c(=O)c2cc2c(=O)c3cnccc3[nH]c12`: the concentration for total growth inhibition (TGI) with SNB-78 CNS, in the test with DMS 114 small cell lung, in the test on LXFL 529 NSCLC and in the test with KM20L2 colon was more than 100 µM in each case.
`O=C(O)c1cc2c(cn1)[nH]c1ccccc12`: the concentration for total growth inhibition (TGI) with SNB-78 CNS, in the test with DMS 114 small cell lung, with LXFL 529 NSCLC and with KM20L2 colon was more than 100 µM in each case.
Turning to `O=c1cc2ccccc2nn1-c1ccccc1Cl`, the TGI in the test with SNB-78 CNS was more than 100 µM; in the test with XF 498 CNS, 77.5 µM; in the test on DMS 114 small cell lung, more than 100 µM; in the test on KM20L2 colon it was more than 100 µM.
On to `COC(=O)N/N=C/c1oc(-c2cccc([N+](=O)[O-])c2)c(-c2cccc([N+](=O)[O-])c2)c1[N+](=O)[O-]`, for which the TGI in the test with XF 498 CNS, in the test on LXFL 529 NSCLC and in the test on KM20L2 colon was more than 100 µM in each case.
On to `CN(C)c1ccc2c3c(c(=O)oc2c1)CCC3`, for which the total growth inhibition concentration (TGI) in the test with MDA-N, with HS 578T breast and in the test with BT-549 breast was more than 100 µM in each case.
`N.N.NC(CS)C(=O)[O-].NC(CS)C(=O)[O-].[Pt+4]` (stereo not drawn): the GI50 in the test with SNB-78 CNS, with LXFL 529 NSCLC and with KM20L2 colon was more than 50 µM each time. The total growth inhibition concentration (TGI) in the test on SNB-78 CNS, in the test with LXFL 529 NSCLC and with KM20L2 colon was more than 50 µM in each case.
As for `CC(=O)N1c2ccccc2Sc2cc(C(O)(C(F)(F)F)C(F)(F)F)ccc21`, the concentration for total growth inhibition (TGI) with MDA-N, in the test on HS 578T breast and in the test on BT-549 breast was more than 10 µM throughout.
Turning to `CC(=O)/C=C/c1ccc(C2CC(C)=Nc3c(ccc4c3C(=O)c3ccccc3C4=O)N2)cc1` (stereo not drawn), the TGI with SNB-78 CNS, with XF 498 CNS, with DMS 114 small cell lung and in the test on KM20L2 colon was more than 100 µM in each case.

By TGI is commonly meant the concentration giving total growth inhibition. By GI50 is commonly meant the concentration giving 50% growth inhibition.
